In a melting point compilation (Tetko et al.):

SMILES | melting point [°C]
N#Cc1ccc(N2CCC(N)CC2)nc1 | 70 to 72
CNC(=O)c1ccc(NC(=O)CCl)cc1 | 206 to 208
N#CCc1cccnc1Cl | 80 to 82
CC(C)(C)OC(=O)N1CCCCCC1C(N)=NO (centres undefined) | 150 to 152
CC(CC(=O)O)NC(=O)OCc1ccccc1 (centres undefined) | 129 to 131
Cc1ccccc1-n1c(C)nnc1S | 201 to 203
CCOC(=O)c1sc2nc(C)nn2c1C | 87 to 89
CN(C)C(=O)CNc1ccccc1 | 114 to 116
OCc1ncc(Br)s1 | 73 to 75
ClCc1csc(COc2ccc(Cl)cc2)n1 | 75 to 77
O=C(c1c[nH]c(=O)[nH]1)N1CCNCC1 | 269 to 271
Cn1cncc1C#N | 48 to 50
N#Cc1cccc(CN2C(=O)CSC2=O)c1 | 112 to 114
CNC(=O)c1cnc(C)s1 | 172 to 174
CC1Cc2ccccc2N1Cc1occc1C(=O)O (centres undefined) | 186 to 188
COc1ccc(Cc2cnc(NC(=O)CCl)s2)cc1 | 152 to 154
Cc1ccc(CNC(=O)CC#N)cc1 | 127 to 129
CC(=O)c1nnn(-c2cccc(Br)c2)c1C | 74 to 76
CCOc1ccc(N)cc1S(=O)(=O)N(C)C | < 17
CCOC(=O)c1cnn2c1NCCC2 | 159 to 161
CC(C)C(Br)C(=O)N1CCc2ccccc21 (centres undefined) | 111 to 113
Cc1ccc(S(=O)(=O)NCCCN(C)C)cc1C(=O)O | 229 to 231
O=c1[nH]cnc2c(-c3ccccc3)nsc12 | 256 to 258
Nc1ccc(NCc2ccccn2)cc1 | 89 to 91
CC(O)c1nc(-c2ccccc2)cs1 (centres undefined) | 75 to 77
Nc1cccc(C(=O)N2CCOCC2)c1 | 82 to 84

SMILES | melting point [°C]
COC(=O)c1cc2c(nc1N)CCCC2 | 126 to 128
COC(=O)COc1ccc(N)cc1Cl | 66 to 68
COc1coc(CCl)cc1=O | 116 to 118
O=S(=O)(c1ccc(Cl)c(N=C=S)c1)N1CCOCC1 | 118 to 120
Nc1nc(=O)cn[nH]1 | 249 to 251
CC(C)(C)n1nc[nH]c1=O | 219 to 221
N#Cc1ccc(OCc2cccc(C(=O)O)c2)cc1 | 221 to 223
CC(=O)c1cccc(NC(=O)C(C)Cl)c1 (centres undefined) | 111 to 113
NC1CCN(C(=O)C2CC2)CC1 | 53 to 55
O=C(O)c1cc(-c2ccccc2)nc2c1cnn2Cc1ccncc1 | 279 to 281
O=C(O)c1cc2ccc(-c3ccccc3)cc2[nH]1 | 250 to 252
CN(c1ccc(O)cc1)S(C)(=O)=O | 129 to 131
C=CCNC(=O)c1nc(C(=O)O)cs1 | 147 to 149
CNS(=O)(=O)Cc1ccc(C#N)cc1 | 154 to 158
Clc1nccc(OCc2ccccc2)n1 | 49 to 51
CCc1c(-c2ccncc2)n[nH]c1N | 154 to 156
CC1(c2ccc3c(c2)OCO3)NC(=O)NC1=O (centres undefined) | 197 to 199
COc1ccc(CNC(=O)C(C#N)=CN(C)C)cc1 | 128 to 130
O=C(O)C1CCN(c2cncc3nnnn23)CC1 | 159 to 161
N#CCc1ccc(OCc2ccccn2)cc1 | 76 to 78
CCc1ccccc1NC(=O)CC(C)=O | 89 to 91
O=C(O)CCCc1ccc2c(c1)CC(=O)N2 | 180 to 182
O=C1CSC(C(F)(F)F)O1 (centres undefined) | 65 to 67
CC(C)c1ccc(C=NO)cc1 | 64 to 66
O=C1NC(=O)C2(CCCc3sccc32)N1 (centres undefined) | 267 to 269
CN1CCN(S(=O)(=O)c2cccc(N)c2)CC1 | 140 to 142

SMILES | melting point [°C]
O=C(O)c1cccc([N+](=O)[O-])c1Br | 184 to 186
NC(C(=O)O)c1ccccc1C(F)(F)F (centres undefined) | 282 to 284
Clc1ncnc2ccc(Br)cc12 | 166 to 168
Cc1nc(Cl)nc(C)c1Cc1ccccc1 | 42 to 44
Cc1cc(Sc2ncccn2)ccc1N | 126 to 128
O=C(O)c1cccc([N+](=O)[O-])c1N1CCOCC1 | 196 to 198
CCOc1ccccc1CCC(=O)O | 70 to 72
CCOC(=O)C(=O)CC(=O)c1ccc(OC)cc1 | 51 to 53
O=C(O)CCn1cccn1 | 76 to 78
O=C(O)CNC(=O)NCc1ccc(F)cc1 | 169 to 171
Nc1c(Cl)cc(Br)cc1C(=O)O | 233 to 235
O=Cc1cnn(-c2ccc(F)cc2)c1 | 120 to 122
O=S(=O)(Nc1ccccc1Br)N1CCOCC1 | 81 to 83
Cc1cc(Cl)nc(-c2cccnc2)n1 | 70 to 72
CC(=O)c1oc2ccccc2c1NC(=O)C(C)Cl (centres undefined) | 105 to 107
CCCn1c(C)nnc1CO | 59 to 61
O=C(O)CCN1C(=O)C(=Cc2ccc(F)cc2)SC1=S | 135 to 137
Cc1ccccc1Nc1nnc(S)s1 | 230 to 232
CN(C(=O)c1cccc(C(=O)O)c1)c1ccccc1 | 170 to 172
Cc1nn(-c2ccc(Br)cc2)cc1C=O | 111 to 113
CCc1ccc(C(C)CC(=O)O)cc1 (centres undefined) | 65 to 67
CC(C)(C(=O)O)C1CCCCC1 | 64 to 66
COC(=O)c1nc2n(n1)-c1ccccc1S(=O)(=O)N2 | 262 to 264
Sc1nnc(-c2ccc3c(c2)OCO3)o1 | 179 to 181
c1ccc(NC2CCNC2)cc1 (centres undefined) | 77 to 79
CC1CCC(CC(=O)O)CC1 (centres undefined) | 58 to 60

SMILES | melting point [°C]
N#CC1(N2C(=O)C=CC2=O)CCCC1 | 43 to 45
CN(CC(=O)O)C(=O)c1ccc(Br)s1 | 114 to 116
NCC(O)(c1ccccc1)C(F)(F)F (centres undefined) | 76 to 78
N#CCc1nc2cc(Cl)ccc2c(=O)[nH]1 | 282 to 284
COc1nc(C)cc(=O)[nH]1 | 199 to 201
CC(Cl)c1ncc(-c2ccccc2)o1 (centres undefined) | 54 to 56
CNS(=O)(=O)c1ccc(-c2cccs2)c(C(=O)O)c1 | 164 to 166
O=C(O)c1ccc(-c2noc(-c3ccc(F)cc3)n2)cc1 | 291 to 293
Cc1c(C(=O)O)sc2nc(Cc3ccccc3)[nH]c(=O)c12 | 342 to 344
CC(Cl)C(=O)N1CCN(c2ncccn2)CC1 (centres undefined) | 96 to 98
NNc1ccc([N+](=O)[O-])cc1S(=O)(=O)Nc1ccccc1Cl | 220 to 229
CC(=O)c1ccc(NC(=O)CI)cc1 | 139 to 141
O=C(O)c1occc1-c1ccc(F)cc1 | 147 to 149
COc1ccc(Br)cc1NCc1ccncc1 | 89 to 91
C=CCn1cnc(-c2ccccc2)c1N | 72 to 74
COCCCC(=O)c1ccc(Br)cc1 | 53 to 55
NC(=O)C1CC(C(=O)O)=NN1c1ccc(F)cc1 (centres undefined) | 219 to 221
NC(=O)CN1CC(C(=O)O)CC1=O (centres undefined) | 169 to 171
COc1ccc2nc(Cl)ccc2c1S(=O)(=O)Cl | 136 to 138
Clc1nnc(Cl)c(Cl)n1 | 56 to 58
O=C1CCC2(CCN1)OCCO2 | 101 to 103
CCN(CC)S(=O)(=O)c1ccc(OC)c(NC(=O)CCl)c1 | 100 to 102
CNS(=O)(=O)CCC(=O)OCc1ccccc1 | 59 to 61
Nc1cc(=O)[nH]n1-c1ccccc1 | 109 to 111
CS(=O)(=O)C1(C(=O)O)CCCC1 | 117 to 119
O=C(O)c1c(O)cccc1Cl | 166 to 168
